Measured values reported in patent US20250092058A1 (priority 2018, published 2025).

Tests used:
A2780CP70-GFPcODC cells = assay: GFPcODC drug-resistant cell tracking, A2780CP; type: cell-based, human; settings: 10 nM and 100 nM
From the text: (§1) Generation of A2780-GFPcODC, A2780CP-GFPcODC and PANC1GFPcODC cells and fluorescence microscopy to detect stem-like and drug resistant green cells. The retroviral expression vector pQCXIN-ZsGreen-cODC (ornithine decarboxylase), containing a green fluorescence marker, was kindly provided by Dr. Frank Pajonk (Vlashi E, et al., In vivo imaging, tracking, and targeting of cancer stem cells. J Natl Cancer Inst. 2009; 101: 350-9). The retroviral particles collected from packaging cells that transfected with the above vector were infected into A2780, A2780CP and PANC1 cells, respectively. The transfected cell pool was used for experiments. The transfected cells were treated with and without cisplatin or FL118 alone or in combination for defined times. Cell images were acquired digitally using the Olympus IX73 Inverted Score s (Olympus). Percentages of living cells were obtained from the average of the total cells counted from 10 microscopic fields.
To test this, we used a novel approach developed in Dr. Pajonk's lab for the live tracking of drug resistant cells (Vlashi E, et al., In vivo imaging, tracking, and targeting of cancer stem cells. J Natl Cancer Inst. 2009; 101: 350-9). This approach takes advantage of reduced 26S proteasome activity of drug resistant cells. […]

PANC1 cells = assay: Matrigel CSC sphere formation; type: cell-based, human; settings: 1, 10 and 100 nM, 20 days
Description: Matrigel stem cell cultural assay. […] Spheres were maintained in Improved MEM containing 20 ng/ml epidermal growth factor, 10 ng/ml basic fibroblast growth factor, […] insulin and 0.4% Bovine Serum Albumin. PANC1cells were plated at a density of 1000 cells/well in 24-well ultralow attachment plates (Sigma-Aldrich). Briefly, 1000 PANC1 cells were suspended in […] medium and mixed thoroughly with […] BD Matrigel™ (BD Bioscience, San Jose, CA, USA). […] Upon solidification, FL118 treatment was administered. Spheres in each well were set in the plate to grow for 20 days and then quantitated visually under a microscope at the magnification of 10×.
To further confirm these findings, we alternatively used the typical matrigel-based CSC sphere formation assay which is know to more closely mimic in vivo situations. In this assay only drug resistant stem-like cancer cells are able to form spheres. […] We performed colony formation of CD44 stem cell marker-positive cells using the stem-cell culture condition. […] Thus, the GFPcODC-positive cell model may be an extremely drug resistant cell model or a less actual cell mimic system after transfection of the GFPcODC-expressing vector and selection process for obtaining GFPcODC-expressing cells, which may not fully mimic the CD44 stem cell marker-positive drug resistant cells. […]

ABCG2 and Pgp = assay: Efflux transporter substrate studies; type: in vitro ADME
PDX14244 = assay: Pancreatic cancer PDX14244 in SCID mice; type: in vivo; settings: 5 mg/kg ip qw×4
Description: (§2) Human pancreatic cancer patient-derived xenograft (PDX) tumor mouse model and treatment. Experiments followed the IACUC-approved mouse protocol. Briefly, human PDAC PDX tumors maintained on SCID mice were isolated, and a piece of non-necrotic tumor tissues (30-40 mg) were subcutaneously transplanted into the flank area of female SCID mice. […] In this study, we used the timesaving intraperitoneal (ip) route for drug administration. […] The formulation process was described in detail in our previous patent (PCT/US2011/058558). […] Tumor length (L) and width (W) were measured using digital vernier calipers 1-3 times per week until the end of experimental studies. The tumor volume (v) was calculated using the formula: v=0.5 (L×W^2). Then the tumor size was divided by the day 0 tumor size as percentage tumor size versus day 0. The mean tumor volume ± standard deviation (SD) at each time point was derived from 5 mice in each group. The tumor curves were made using Sigma Plot software.
(§3) It has been recently documented that pancreatic cancer PDXs retain active paracrine/Hedgehog signaling, and desmoplasia is active in PDX tumor mouse models.

ERCC6, γ-H2AX = assay: Western blots of DNA damage/repair proteins in PANC1; type: cell-based, human
Description: Western blotting/Immunoblotting. […] Fifty μg total protein from each sample were heated at 95° C. for 5 minutes after mixing with equal volume of 2×SDS loading buffer. Samples were separated on 12-15% SDS-polyacrylamide gel electrophoresis (SDS-PAGE) gels and electrotransferred to Pure Nitrocellulose Membranes (Bio-Rad, Hercules, CA). The membrane was then blocked in 5% skim milk in TBS-T buffer (20 mM Tris/HCl pH 7.5, 0.137 M NaCl, and 0.1% Tween 20) at room temperature for 2-3 hours. Next, the membrane was incubated with different primary antibodies in TBS-T containing 5% BSA overnight at 4° C. in the range of dilutions from 1:500 to 1:2000. After washing with TBS-T, the membrane was incubated in TBS-T buffer containing 5% skim milk and corresponding secondary antibody (1:5000) for 45-60 minutes at room temperature with shaking. Protein of interest was detected using Western Lightning Plus—ECL (Perkin Elmer, Waltham, MA) and visualized by various times (3-120 seconds) of exposure. Actin was detected as the internal control to normalize total protein loading for each sample.

A549 = type: cell-based, human; settings: Table 13; MTT; A549 lung cancer
PDX10978 = assay: Pancreatic cancer PDX10978 in SCID mice; type: in vivo
Description: as §2, §3

PANC1-GFPcODC cells = assay: Trypan blue exclusion, PANC1-GFPcODC cells; type: cell-based, human; settings: 4-day treatment; 20 μM cisplatin, 10 nM FL118, or both
From the text: as §1, with “The transfected cells were treated with and without cisplatin or FL118 alone or in combination for defined times.” left out
Next, we applied the same system to generate pancreatic cancer PANC1-GFPcODC cells.

[1] = calculated from SCID mouse MTD

CC[C@@]1(O)C(=O)OCc2c1cc1n(c2=O)Cc2cc3cc4c(cc3nc2-1)OCO4 [FL118, 10,11-methylenedioxy-camptothecin]
decrease of GFPcODC-positive drug-resistant cell population (A2780CP70-GFPcODC cells): more than 50% | sphere formation (PANC1 cells): high efficacy in inhibiting sphere formation | substrate of ABCG2 and Pgp (ABCG2 and Pgp): not a substrate of ABCG2 and Pgp | antitumor efficacy (PDX14244): able to eliminate these PDX tumors after one cycle of treatment | expression of ERCC6 and γ-H2AX (ERCC6, γ-H2AX): strongly decreased the expression of ERCC6 and induced γ-H2AX | IC50 (A549): 81.8 ± 14 nM | antitumor efficacy (PDX10978; 5 mg/kg ip qw×4): only able to delay PDX10978 tumor growth | antitumor efficacy, single agent (PDX10978; FL118 0.75 mg/kg or gemcitabine 60 mg/kg ip qw×4): only delayed tumor growth | cell death (PANC1-GFPcODC cells): ~18% | calculated FL118 MTD for dogs [1]: 2 mg/kg
